Among the test systems are A498; ACHN; CAKI-1; EKVX; HOP-92; KM12; MDA-MB-231; MDA-MB-435; MOLT-4; Malme-3M; NCI/ADR-RES; OVCAR-5; SF-295; SW-620; UACC-62; A549; DU-145; SN12C; RXF 393.
Holding throughout (experiment): DTP human tumour cell line panel, 48 h

These results are taken from ChEMBL document CHEMBL1201862, “PubChem BioAssay data set” (2004).

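Cultured in 96-well plates, cells were exposed to test compound for 48 hours across five concentrations. At the GI50, growth is halved.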 Activity calls are given as the source filed them. Rule as the data show it: active = GI50 up to about 1.1 µM and inactive = higher.

As to `CC1=C2CC3=C(C)C(=O)O[C@H]3C[C@@H](C)[C@@H]2CC1` [AMERICANOLIDE D], the GI50 with A498 was > 100 µM (inactive); with ACHN, > 100 µM (inactive); in the assay on CAKI-1, > 100 µM (inactive); in the assay on EKVX, > 100 µM (inactive); with HOP-92, > 100 µM (inactive); with KM12, 7.48 µM (inactive). For the same compound, the GI50 in the assay with MDA-MB-231 was > 100 µM (inactive); with MDA-MB-435 it was > 100 µM (inactive); in the assay on MOLT-4, 51.9 µM (inactive); in the assay with Malme-3M, > 100 µM (inactive); in the assay with NCI/ADR-RES it was > 100 µM (inactive); in the assay on OVCAR-5 it was > 100 µM (inactive). The GI50 with SF-295, in the assay on SW-620 and with UACC-62 was > 100 µM (inactive) in each case.

Turning to `CO[C@]12C[C@H](CNC(=O)c3ccc[nH]3)O[C@H]1NC(=O)N2`, the GI50 in the assay with A498, in the assay with A549, in the assay with ACHN, in the assay with CAKI-1, in the assay with DU-145 and in the assay with EKVX was > 100 µM (inactive) throughout. Moreover, the GI50 in the assay with HOP-92, with KM12, with MDA-MB-231, with MDA-MB-435, in the assay on Malme-3M and with NCI/ADR-RES was > 100 µM (inactive) in each case. The GI50 in the assay with OVCAR-5, in the assay on SF-295, with SN12C, with SW-620 and in the assay on UACC-62 was > 100 µM (inactive) in each case.

Turning to `C[C@]12CC[C@H](OCCC#N)CC1=CC[C@@H]1C2CC[C@]2(C)/C(=N/OCCC#N)CCC12` (some centres not stated), the GI50 in the assay with A498 is > 100 µM (inactive); with A549, 31.3 µM (inactive); in the assay on ACHN it was 16.7 µM (inactive); in the assay with CAKI-1, 26.1 µM (inactive); with EKVX it was > 94.8 µM (inactive); in the assay with HOP-92, 14.3 µM (inactive). Further, the GI50 in the assay with KM12 was > 100 µM (inactive); in the assay with MOLT-4, > 100 µM (inactive); in the assay on Malme-3M, 30.1 µM (inactive); in the assay with OVCAR-5, > 100 µM (inactive); in the assay with RXF 393 it was 25.4 µM (inactive); in the assay with SF-295, 17.2 µM (inactive). Also, the GI50 is > 100 µM (inactive) in the assay on SN12C, > 100 µM (inactive) with SW-620 and 21.9 µM (inactive) in the assay with UACC-62.

In the case of `O=C1C(Cl)=C(N2CCN(CCOCCO)CC2)C(=O)c2ncccc21`, the GI50 in the assay with A498, in the assay on A549, with ACHN, in the assay with CAKI-1, in the assay on DU-145 and in the assay with EKVX was > 10 µM (inactive) each time. Further, the GI50 was 1.63 µM (inactive) in the assay on HOP-92; > 10 µM (inactive) in the assay with KM12; > 10 µM (inactive) in the assay with MDA-MB-231; 2.65 µM (inactive) in the assay with MDA-MB-435; > 10 µM (inactive) with MOLT-4; 7.85 µM (inactive) in the assay with Malme-3M. The GI50 with NCI/ADR-RES was > 10 µM (inactive); in the assay on OVCAR-5 it was > 10 µM (inactive); in the assay on RXF 393 it was 3.69 µM (inactive); in the assay with SF-295, > 10 µM (inactive); in the assay with SN12C, > 10 µM (inactive); with SW-620, > 10 µM (inactive). In the assay with UACC-62, the GI50 is > 10 µM (inactive).

Regarding `Cc1c(C)c2c(c(N)c1C#N)C(=O)N(O)C2=O`, the GI50 with A498, in the assay with A549, with ACHN, in the assay on CAKI-1, with DU-145 and in the assay on EKVX was > 100 µM (inactive) each time. Further, the GI50 in the assay with HOP-92, in the assay with KM12, in the assay on MDA-MB-231, in the assay with MDA-MB-435, in the assay with MOLT-4 and in the assay on Malme-3M was > 100 µM (inactive) throughout. For the same compound, the GI50 with NCI/ADR-RES, in the assay with OVCAR-5, in the assay with RXF 393, in the assay on SF-295, in the assay with SN12C and in the assay with SW-620 was > 100 µM (inactive) each time. The GI50 in the assay with UACC-62 is > 100 µM (inactive).

Take `COc1ccc2c(=O)c3ccoc3[nH]c2c1`: the GI50 in the assay with A498, in the assay on ACHN, in the assay with CAKI-1, in the assay with DU-145, in the assay with EKVX and with HOP-92 was > 100 µM (inactive) throughout. Also, the GI50 with KM12, with MDA-MB-231, in the assay with MDA-MB-435, in the assay with MOLT-4, with NCI/ADR-RES and in the assay on RXF 393 was > 100 µM (inactive) in each case. Moreover, the GI50 in the assay with SF-295, in the assay with SW-620 and in the assay on UACC-62 was > 100 µM (inactive) each time.

Regarding `CCOC(=O)C(C(=O)OCC)C(=O)c1ccccc1C(=O)c1ccccc1`, the GI50 with A498 was > 100 µM (inactive); with A549, > 100 µM (inactive); in the assay with ACHN it was > 100 µM (inactive); with CAKI-1 it was > 100 µM (inactive); with DU-145, 43.8 µM (inactive); with EKVX, 26.1 µM (inactive). For the same compound, the GI50 is > 100 µM (inactive) with HOP-92; > 100 µM (inactive) with KM12; > 100 µM (inactive) with MDA-MB-231; > 100 µM (inactive) with MDA-MB-435; 23.4 µM (inactive) with MOLT-4; > 100 µM (inactive) in the assay on Malme-3M. Besides, the GI50 in the assay with NCI/ADR-RES is > 100 µM (inactive); with OVCAR-5, > 100 µM (inactive); with RXF 393, > 100 µM (inactive); with SF-295, > 100 µM (inactive); in the assay with SN12C it was > 100 µM (inactive); in the assay on SW-620, 19.5 µM (inactive). Besides, the GI50 in the assay on UACC-62 is > 100 µM (inactive).

As to `N=C(N)N/N=C/c1c(-c2ccc(Cl)c([N+](=O)[O-])c2)nc2sccn12`, the GI50 in the assay with A498 was 1.72 µM (inactive); with A549, 1.75 µM (inactive); in the assay on ACHN it was 1.71 µM (inactive); with CAKI-1 it was 1.69 µM (inactive); in the assay on DU-145 it was 1.78 µM (inactive); in the assay with EKVX it was 1.85 µM (inactive). In addition, the GI50 in the assay on HOP-92 was 1.87 µM (inactive); with KM12, 0.861 µM (active); in the assay with MDA-MB-231, 1.74 µM (inactive); with MDA-MB-435, 0.6 µM (active); with MOLT-4, 1.71 µM (inactive); in the assay on Malme-3M, 1.91 µM (inactive). Besides, the GI50 with NCI/ADR-RES is > 100 µM (inactive); with OVCAR-5 it was 1.71 µM (inactive); in the assay with RXF 393, 1.22 µM (inactive); in the assay on SF-295 it was 1.75 µM (inactive); in the assay on SN12C it was 1.82 µM (inactive); in the assay with SW-620, 1.53 µM (inactive). The GI50 with UACC-62 is 1.8 µM (inactive).

As to `COCCOCC(=O)N(CCn1ccc(NC(c2ccccc2)(c2ccccc2)c2ccccc2)nc1=O)CCn1cnc2nc(N)[nH]c(=O)c21`, the GI50 in the assay with A498, in the assay on A549, in the assay on ACHN, in the assay on CAKI-1, in the assay on EKVX and in the assay on HOP-92 was > 100 µM (inactive) throughout. In addition, the GI50 with KM12, in the assay on MOLT-4, in the assay with Malme-3M, with OVCAR-5, in the assay with RXF 393 and in the assay with SF-295 was > 100 µM (inactive) throughout. The GI50 in the assay with SN12C, in the assay on SW-620 and with UACC-62 was > 100 µM (inactive) each time.

For the compound `CC(C)NC(=O)OCc1c(COC(=O)NC(C)C)c(-c2ccc[n+](COC(=O)C3CC3)c2)n2c1CCC2`, the GI50 in the assay on A498 is 35.9 µM (inactive); in the assay on A549, 89.1 µM (inactive); in the assay on ACHN, 20 µM (inactive); with CAKI-1, 20.1 µM (inactive); in the assay on DU-145, 37.6 µM (inactive); with EKVX, > 100 µM (inactive). Also, the GI50 was 40.8 µM (inactive) in the assay with HOP-92; > 100 µM (inactive) with KM12; > 100 µM (inactive) with MDA-MB-231; > 100 µM (inactive) with MDA-MB-435; 14.9 µM (inactive) in the assay with MOLT-4; > 100 µM (inactive) with Malme-3M. Moreover, the GI50 in the assay with NCI/ADR-RES was 47.1 µM (inactive); in the assay on OVCAR-5 it was > 100 µM (inactive); in the assay with RXF 393 it was 34.2 µM (inactive); in the assay on SF-295, 45.9 µM (inactive); in the assay with SN12C it was 48.1 µM (inactive); with SW-620, > 100 µM (inactive). For the same compound, the GI50 in the assay on UACC-62 is 27.6 µM (inactive).

Take `CC1(C)C(O)C[C@@H](O)[C@@]2(C)C1CC[C@]1(C)C2C[C@@H](O)[C@@H]2C([C@@]3(C)CC[C@@H](C(C)(C)O)O3)CCC21C` (some centres not stated): the GI50 in the assay on A498 was 17.3 µM (inactive); in the assay with A549, 18.9 µM (inactive); in the assay with ACHN, 19.1 µM (inactive); with CAKI-1 it was 18.3 µM (inactive); with EKVX, 24.9 µM (inactive); in the assay on HOP-92, 9.68 µM (inactive). Further, the GI50 with KM12 was 15.9 µM (inactive); in the assay on MOLT-4, 22 µM (inactive); with Malme-3M, 13.4 µM (inactive); in the assay on OVCAR-5 it was 16.1 µM (inactive); with RXF 393, 13.4 µM (inactive); in the assay with SF-295, 15.7 µM (inactive). The GI50 is 13.8 µM (inactive) with SN12C, 16.5 µM (inactive) with SW-620 and 9.93 µM (inactive) in the assay on UACC-62.

In general, GI50 refers to the concentration that inhibits growth by half.
